Usually IC50 stands for the concentration needed to halve the response being measured. For orientation: Cmax means the highest concentration seen after dosing.

Molecules are shown by their SMILES.

Data on four molecules can be found in ChEMBL document CHEMBL6087393, “Sensitive quantification of fibroblast activation protein and high-throughput screening for inhibition by FDA-approved compounds” (Eur J Med Chem, 2024).

The target of one series is T1, Prolyl endopeptidase FAP (Homo sapiens, UniProt Q12884).
T1 sequence (Q12884 whole entry): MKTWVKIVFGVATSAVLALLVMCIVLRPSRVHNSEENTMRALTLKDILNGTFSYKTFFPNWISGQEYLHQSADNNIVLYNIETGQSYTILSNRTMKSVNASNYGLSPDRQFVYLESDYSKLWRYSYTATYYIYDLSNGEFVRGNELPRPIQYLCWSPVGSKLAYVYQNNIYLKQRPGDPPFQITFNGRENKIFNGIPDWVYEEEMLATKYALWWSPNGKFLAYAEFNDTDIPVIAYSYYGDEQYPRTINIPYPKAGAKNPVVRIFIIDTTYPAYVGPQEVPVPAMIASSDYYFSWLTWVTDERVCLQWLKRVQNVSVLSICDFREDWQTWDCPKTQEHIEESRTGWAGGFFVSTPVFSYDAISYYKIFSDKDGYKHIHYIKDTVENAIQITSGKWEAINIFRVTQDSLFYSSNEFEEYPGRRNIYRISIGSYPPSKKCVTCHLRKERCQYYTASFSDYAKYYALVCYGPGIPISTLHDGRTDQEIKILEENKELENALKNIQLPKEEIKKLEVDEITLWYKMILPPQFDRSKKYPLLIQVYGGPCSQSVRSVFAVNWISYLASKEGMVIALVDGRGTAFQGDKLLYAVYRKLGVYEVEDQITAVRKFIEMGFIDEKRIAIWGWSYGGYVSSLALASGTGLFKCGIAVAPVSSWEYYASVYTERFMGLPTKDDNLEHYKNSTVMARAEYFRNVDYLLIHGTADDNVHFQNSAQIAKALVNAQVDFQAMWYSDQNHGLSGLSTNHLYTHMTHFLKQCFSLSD
Kind of series: Inhibition of recombinant human FAP extracted from S2 cells using fluorogenic FAP as specific substrate measured after 10 mins incubation by 7-amino-4-methylcoumarin in assay.

The nature of a further series: clinical. The settings on record: human.

`Nc1ncnc2c1ncn2CCOCP(=O)(O)O` [ADEFOVIR]: on Prolyl endopeptidase FAP, the IC50 is more than 100 µM.
Consider `CC#CCn1c(N2CCC[C@@H](N)C2)nc2c1c(=O)n(Cc1nc(C)c3ccccc3n1)c(=O)n2C` [LINAGLIPTIN], for which, in the series “clinical”, the peak level (Cmax) was 0.012 µM. In other words, the double-digit nanomolar range.
With `C[C@H](Cn1cnc2c(N)ncnc21)OCP(=O)(O)O` [TENOFOVIR ANHYDROUS], the IC50 at Prolyl endopeptidase FAP is more than 100 µM.
Molecule `Cc1cc2ncc(C(=O)NCC(C)(C)NCC(=O)N3CCC[C@H]3C#N)cn2n1` [ANAGLIPTIN] gave a Cmax in the series “clinical” of 1.2 µM.
